Measurements published in patent US20090124657A1, “PHARMACEUTICAL COMPOSITIONS COMPRISING MONTELUKAST” (priority 2007, published 2009).

Assay: Susceptibility of montelukast sodium to degradation
Format: physicochemical

## CC(C)(O)c1ccccc1CC[C@@H](SCC1(CC(=O)O)CC1)c1cccc(/C=C/c2ccc3ccc(Cl)cc3n2)c1 [Montelukast sodium, [R-(E)]-1-[[[1-[3-[2-(7-chloro-2-quinolinyl)ethenyl]phenyl]-3-[2-(1-hydroxy-1-methylethyl)phenyl]propyl]thio]methyl]cyclopropaneacetic acid]
Significant increase in mok-3 sulfoxide impurity
  Susceptibility to oxidative degradation (including atmospheric oxygen): highly susceptible
Significant increase in styrene impurity
  Susceptibility to acid hydrolysis: highly susceptible
